Experimental data as given in ChEMBL document CHEMBL1158870, “Antitumor agents. 180. Chemical Studies and cytotoxic evaluation of cumingianosides and cumindysoside A, antileukemic triterpene glucosides with a 14,18-cycloapotirucallane skeleton” (1997).

Experiments:
Leukemia cell = test: Cytotoxicity against human Leukemia cells by SRB assay; assay type: functional
EKVX = test: Cytotoxicity against human EKVX cells by SRB assay; assay type: functional
SK-MEL-2 = test: Cytotoxicity against human SK-MEL-2 cells by SRB assay; assay type: functional
HCT-15 = test: Cytotoxicity against human HCT15 cells by SRB assay; assay type: functional
SR = test: Cytotoxicity against human SR cells by SRB assay; assay type: functional
A549 = test: Cytotoxicity against human A549 cells by SRB assay; assay type: functional
U-251 = test: Cytotoxicity against human U251 cells by SRB assay; assay type: functional
SK-OV-3 = test: Cytotoxicity against human SKOV3 cells by SRB assay; assay type: functional
COLO 205 = test: Cytotoxicity against human COLO205 cells by SRB assay; assay type: functional
Malme-3M = test: Cytotoxicity against human MALME-3M cells by SRB assay; assay type: functional
[1] = Cytotoxicity against human Colon cancer cells by SRB assay; assay type: functional; conditions: Cancer cell lines
OVCAR-3 = test: Cytotoxicity against human OVCAR-3 cells by SRB assay; assay type: functional
UO-31 = test: Cytotoxicity against human UO31 cells by SRB assay; assay type: functional
SF-268 = test: Cytotoxicity against human SF268 cells by SRB assay; assay type: functional
MOLT-4 = test: Cytotoxicity against human MOLT4 cells by SRB assay; assay type: functional
LOX IMVI = test: Cytotoxicity against human LOXIMVI cells by SRB assay; assay type: functional
MDA-MB-231 = test: Cytotoxicity against human MDA-MB-231 cells by SRB assay; assay type: functional
[2] = Cytotoxicity against human breast cancer cells by SRB assay; assay type: functional; conditions: Cancer cell lines
[3] = Cytotoxicity against human CNS cancer cells by SRB assay; assay type: functional; conditions: Cancer cell lines
CCRF-CEM = test: Cytotoxicity against human CCRF-CEM cells by SRB assay; assay type: functional
[4] = Cytotoxicity against human 786-O cells by SRB assay; assay type: functional; conditions: 786-0
NSCLC = test: Cytotoxicity against human NSCLC cells by SRB assay; assay type: functional
CAKI-1 = test: Cytotoxicity against human Caki1 cells by SRB assay; assay type: functional
OVCAR-4 = test: Cytotoxicity against human OVCAR4 cells by SRB assay; assay type: functional
UACC-62 = test: Cytotoxicity against human UACC62 cells by SRB assay; assay type: functional
NCI-H23 = test: Cytotoxicity against human NCI-H23 cells by SRB assay; assay type: functional
[5] = Cytotoxicity against human prostate cancer cells by SRB assay; assay type: functional; conditions: Cancer cell lines
OVCAR-5 = test: Cytotoxicity against human OVCAR5 cells by SRB assay; assay type: functional
DU-145 = test: Cytotoxicity against human DU145 cells by SRB assay; assay type: functional
SK-MEL-28 = test: Cytotoxicity against human SK-MEL-28 cells by SRB assay; assay type: functional
UACC-257 = test: Cytotoxicity against human UACC257 cells by SRB assay; assay type: functional
HT-29 = test: Cytotoxicity against human HT29 cells by SRB assay; assay type: functional
HOP-92 = test: Cytotoxicity against human HOP92 cells by SRB assay; assay type: functional
A498 = test: Cytotoxicity against human A498 cells by SRB assay; assay type: functional
NCI-H460 = test: Cytotoxicity against human NCI-H460 cells by SRB assay; assay type: functional
[6] = Cytotoxicity against human ovarian cancer cells by SRB assay; assay type: functional; conditions: Cancer cell lines
NCI-H226 = test: Cytotoxicity against human NCI-H226 cells by SRB assay; assay type: functional
NCI-H522 = test: Cytotoxicity against human NCI-H522 cells by SRB assay; assay type: functional
[7] = Cytotoxicity against human Hs 578T cells by SRB assay; assay type: functional
RPMI-8226 = test: Cytotoxicity against human RPMI8226 cells by SRB assay; assay type: functional
M14 = test: Cytotoxicity against human M14 cells by SRB assay; assay type: functional
SK-MEL-5 = test: Cytotoxicity against human SK-MEL-5 cells by SRB assay; assay type: functional
SNB-75 = test: Cytotoxicity against human SNB75 cells by SRB assay; assay type: functional
NCI-H322M = test: Cytotoxicity against human NCI-H322M cells by SRB assay; assay type: functional
T47D = test: Cytotoxicity against human T47D cells by SRB assay; assay type: functional
HCC 2998 = test: Cytotoxicity against human HCC2998 cells by SRB assay; assay type: functional
BT-549 = test: Cytotoxicity against human BT549 cells by SRB assay; assay type: functional
HOP-62 = test: Cytotoxicity against human HOP62 cells by SRB assay; assay type: functional
HCT-116 = test: Cytotoxicity against human HCT116 cells by SRB assay; assay type: functional
[8] = Cytotoxicity against human MCF7/ADR cells by SRB assay; assay type: functional; conditions: NCI/ADR-RES
PC-3 = test: Cytotoxicity against human PC3 cells by SRB assay; assay type: functional
SN12C = test: Cytotoxicity against human SN12C cells by SRB assay; assay type: functional
[9] = Cytotoxicity against human renal cancer cells by SRB assay; assay type: functional; conditions: Cancer cell lines
SNB-19 = test: Cytotoxicity against human SNB19 cells by SRB assay; assay type: functional
IGROV-1 = test: Cytotoxicity against human IGROV1 cells by SRB assay; assay type: functional
SW-620 = test: Cytotoxicity against human SW620 cells by SRB assay; assay type: functional
MDA-MB-435 = test: Cytotoxicity against human MDA-MB-435 cells by SRB assay; assay type: functional
MCF7 = test: Cytotoxicity against human MCF7 cells by SRB assay; assay type: functional
RXF 393 = test: Cytotoxicity against human RXF393 cells by SRB assay; assay type: functional
SF-295 = test: Cytotoxicity against human SF295 cells by SRB assay; assay type: functional
MDA-N = test: Cytotoxicity against human MDA-N cells by SRB assay; assay type: functional
OVCAR-8 = test: Cytotoxicity against human OVCAR8 cells by SRB assay; assay type: functional
[10] = Cytotoxicity against human melanoma cells by SRB assay; assay type: functional; conditions: Melanoma cell
[11] = Cytotoxicity against human HL60(TB) cells by SRB assay; assay type: functional, HL-60(TB); conditions: HL-60
KM12 = test: Cytotoxicity against human KM12 cells by SRB assay; assay type: functional
K562 = test: Cytotoxicity against human K562 cells by SRB assay; assay type: functional
ACHN = test: Cytotoxicity against human ACHN cells by SRB assay; assay type: functional

In the case of `COC(C)(C)[C@@H](O)[C@H]1C[C@H](C)[C@@]2(CC[C@]3(C)[C@@H]2CC[C@@H]2[C@@]4(C)CC[C@@H](OC(C)=O)C(C)(C)[C@@H]4C[C@@H](O[C@@H]4O[C@H](COC(C)=O)[C@@H](O)[C@H](O)[C@H]4O)[C@]23C)O1`, the TGI (Leukemia cell) is reported as 32.1 µM, the GI50 (EKVX) is reported as 5.5 µM and the GI50 (SK-MEL-2) is reported as 6.17 µM. For the same molecule, the GI50 (HCT-15) was 2400 nM, the TGI (HCT-15) was 5.6 µM and the GI50 (SR) was 2190 nM. The GI50 (A549) was 3.89 µM, the GI50 (U-251) was 5.37 µM and the GI50 (SK-OV-3) was 4.79 µM. The GI50 (COLO 205) was 2140 nM, the TGI (COLO 205) was 4.7 µM and the GI50 (Malme-3M) was 11.2 µM. It also gave a TGI [1] of 6.9 µM, a GI50 (OVCAR-3) of 4.79 µM and a GI50 (UO-31) of 5.25 µM. The GI50 (SF-268) was 6.03 µM, the GI50 (MOLT-4) was 2290 nM and the GI50 (LOX IMVI) was 4.79 µM. For the same molecule, the GI50 (MDA-MB-231) was 11 µM, the TGI [2] was 18.6 µM and the TGI [3] was 18.7 µM. For the same molecule, the GI50 (CCRF-CEM) was 3.09 µM, the GI50 [4] was 5.25 µM and the TGI (NSCLC) was 17.8 µM. It also gave a GI50 (CAKI-1) of 5.37 µM, a GI50 (OVCAR-4) of 2950 nM and a GI50 (UACC-62) of 5.25 µM. It also gave a GI50 (NCI-H23) of 9.33 µM, a TGI [5] of 13.1 µM and a GI50 (OVCAR-5) of 3.16 µM. For the same molecule, the GI50 (DU-145) was 4.47 µM, the GI50 (SK-MEL-28) was 6.31 µM and the GI50 (UACC-257) was 5.89 µM. It also gave a GI50 (HT-29) of 1860 nM, a TGI (HT-29) of 4 µM and a GI50 (HOP-92) of 12.9 µM. The GI50 (A498) was 13.2 µM, the GI50 (NCI-H460) was 3.8 µM and the TGI [6] was 15.8 µM. The GI50 (NCI-H226) was 4.79 µM, the GI50 (NCI-H522) was 4.57 µM and the GI50 [7] was 4.07 µM. The GI50 (RPMI-8226) was 2400 nM, the GI50 (M14) was 4.47 µM and the GI50 (SK-MEL-5) was 8.32 µM. It also gave a GI50 (SNB-75) of 3.55 µM, a GI50 (NCI-H322M) of 1910 nM and a GI50 (T47D) of 4.17 µM. It also gave a GI50 (HCC 2998) of 204 nM, a TGI (HCC 2998) of 1800 nM and a GI50 (BT-549) of 12.6 µM. It also gave a GI50 (HOP-62) of 11.5 µM, a GI50 (HCT-116) of 2690 nM and a TGI (HCT-116) of 10 µM. For the same molecule, the GI50 [8] was 7.41 µM, the GI50 (PC-3) was 2820 nM and the GI50 (SN12C) was 4.17 µM. The TGI [9] was 17.9 µM, the GI50 (SNB-19) was 10 µM and the GI50 (IGROV-1) was 4.37 µM. It also gave a GI50 (SW-620) of 6.46 µM, a TGI (SW-620) of 19.8 µM and a GI50 (MDA-MB-435) of 3.63 µM. For the same molecule, the GI50 (MCF7) was 2140 nM, the GI50 (RXF 393) was 3.16 µM and the GI50 (SF-295) was 4.37 µM. It also gave a GI50 (MDA-N) of 5.25 µM, a GI50 (OVCAR-8) of 5.25 µM and a TGI [10] of 20.2 µM. For the same molecule, the GI50 [11] was 2340 nM, the GI50 (KM12) was 1320 nM and the TGI (KM12) was 2000 nM. For the same molecule, the GI50 (K562) was 3.09 µM and the GI50 (ACHN) was 5.25 µM.
